# Measured values: patent US20240150313A1, “TRI-SUBSTITUTED INDOLE BINDING FUNCTION 3 (BF3) COMPOUNDS AND METHODS FOR THEIR USE” (The University of British Columbia, priority 2021, published 2024)
# Entries after “also recorded” stand apart in the source; their conditions may differ.
# What was measured:
# [1] = tested on: AR-mediated PSA expression in LNCaP cells; assay: Prostate-Specific Antigen (PSA) assay; assay type: cell-based, human; conditions: Table 6
# Procedure: Prostate-Specific Antigen (PSA) Assay: The evaluation of PSA levels secreted into the media was performed in parallel to the eGFP assay using the same plates.
# [2] = Drug concentration in mouse blood and brain (HPLC, fluorescence); assay type: in vivo, mice (C57 Black 6)
# Procedure: A Halo5 C18 column was used (3.0×50 mm, 5 μm particle size; injection volume: 1 μL) having a mobile phase A: 10% acetonitrile, 90% water, 10 mM NH4HCO3 and a mobile phase B: 80% acetonitrile, 20% water, 10 mM NH4HCO3, with a flow rate: 0.7 mL/min.
# The dosing solutions were given to mice (C57 Black 6) by oral gavage at 8 μL per gram of body weight (rounded to the nearest 10 μL), corresponding to 30 mg/kg. After 3 h, the animals were euthanized, and then blood and brain samples were collected and stored at 4° C. until analysis.
# Blood samples (clotted) were centrifuged at 9,000 RPM for 2 min×2. Aliquots of the serum (30 μL) were placed in 150 μL micro-centrifuge tubes and acetonitrile (30 μL) were added. The mixture was vortexed briefly and allowed to stand at room temperature for 30 min. Full brains were weighed into 2 mL micro-centrifuge tubes and equal amount of acetonitrile (w/v) was added. […] The samples were centrifuged at 9000 RPM for 2 min×2. The supernatants were transferred to HPLC sample vials with conical inserts, and then analyzed by HPLC.
# All compounds were dosed orally to mice, and after 3 hours, the animals were euthanized and blood and brain samples were collected. Drug levels were analyzed by HPLC equipped with a fluorescence detector as described herein.
# [3] = Water solubility for dosing formulation; assay type: physicochemical; conditions: required concentration 3.75 mg/mL
# Procedure: 13822 was water soluble and was formulated as plain aqueous solution at 3.75 mg/mL. […] A formulation screen was conducted to use various pharmaceutically acceptable surfactants and additives to develop a low organic solution or metastable heterogeneous suspension suitable for oral dosing.
# [4] = target: T1, androgen receptor (AR) transcriptional activity (Homo sapiens, UniProt P10275, T878A); assay: eGFP cellular AR transcription assay; conditions: for AR inhibition activity: eGFP assay; for IC50-eGFP: Table 4, substitution on quinoline moiety of VPC-13566
# T1 sequence (P10275 1-920 T878A): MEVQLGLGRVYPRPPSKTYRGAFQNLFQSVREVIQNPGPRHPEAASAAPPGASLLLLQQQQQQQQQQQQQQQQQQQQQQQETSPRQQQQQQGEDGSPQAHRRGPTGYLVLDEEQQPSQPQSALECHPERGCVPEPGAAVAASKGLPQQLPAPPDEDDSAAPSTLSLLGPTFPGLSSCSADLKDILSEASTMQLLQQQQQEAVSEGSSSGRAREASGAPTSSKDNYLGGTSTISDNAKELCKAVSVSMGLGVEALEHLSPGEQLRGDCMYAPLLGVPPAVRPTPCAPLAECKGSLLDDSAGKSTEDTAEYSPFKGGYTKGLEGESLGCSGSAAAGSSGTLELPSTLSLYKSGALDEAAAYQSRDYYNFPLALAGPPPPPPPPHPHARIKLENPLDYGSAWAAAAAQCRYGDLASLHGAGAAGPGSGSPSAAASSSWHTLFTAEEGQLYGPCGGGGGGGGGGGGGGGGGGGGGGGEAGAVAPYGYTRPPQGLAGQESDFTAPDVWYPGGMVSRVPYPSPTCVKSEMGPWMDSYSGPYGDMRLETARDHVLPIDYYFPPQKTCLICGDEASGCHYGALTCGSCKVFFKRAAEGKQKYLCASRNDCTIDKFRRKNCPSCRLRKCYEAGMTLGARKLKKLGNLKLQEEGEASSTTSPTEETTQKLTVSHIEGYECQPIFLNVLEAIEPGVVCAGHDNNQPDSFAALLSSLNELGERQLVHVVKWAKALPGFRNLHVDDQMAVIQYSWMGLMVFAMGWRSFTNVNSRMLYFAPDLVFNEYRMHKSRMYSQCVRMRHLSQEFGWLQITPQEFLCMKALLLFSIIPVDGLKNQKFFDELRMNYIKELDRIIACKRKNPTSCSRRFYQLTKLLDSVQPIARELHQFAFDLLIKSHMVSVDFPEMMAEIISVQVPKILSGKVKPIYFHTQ
# LNCaP cells = assay: Cell viability / proliferation assay (Prestoblue), LNCaP; assay type: cell-based, human; conditions: 0.1 nM R1881
# Procedure: (§1) After 3 days of treatment, cell density was measured using the Prestoblue™ assay (Thermo Fisher Scientific™).
# PC3 (AR negative) cells = assay: Cell viability / proliferation assay (Prestoblue), PC3; assay type: cell-based, human
# Procedure: as §1
# [5] = Microsomal stability (half-life); assay type: in vitro ADME, human; conditions: for half-life: Table 6
# [6] = tested on: androgen-mediated transcription in LNCaP cells; assay: RNA-seq / GSEA on LNCaP cells; assay type: cell-based, human; conditions: for GSEA normalized enrichment score (canonical AR genes): 10 nM DHT; for differentially expressed genes / downregulated genes / upregulated genes: compared to vehicle; for p53 pathway: with androgen
# [7] = tested on: chromatin binding of AR to enhancers near KLK3 and FKBP5; assay: ChIP-PCR of AR binding sites; assay type: cell-based
# [8] = tested on: nuclear accumulation of exogenous (293T) or endogenous (LNCaP) AR; assay: AR nuclear translocation; assay type: cell-based; conditions: 293T (exogenous) or LNCaP (endogenous), DHT
# Excerpt: B) Heatmap of genes from the GSEA-MySigDB “Hallmark androgen response”. […] D) Nuclear translocation of exogenous (AR-eGFP in 293T) or endogenous (LNCaP) AR following treatment with DHT.
# [9] = target: androgen binding site (ABS) of recombinant wild type LBD (Rattus norvegicus, UniProt P15207)
# [10] = tested on: AR protein-protein interactions on chromatin; assay: RIME of the AR interactome; conditions: DHT treated cells
# [11] = tested on: LNCaP xenograft castration-resistant mouse model; assay: Castration-resistant LNCaP xenograft: serum PSA and tumour growth; assay type: in vivo; conditions: oral treatment, listed as 13789 prodrug
# Procedure: Assessment of Prostate […] Antigen and Tumour Growth for Castration-resistant LNCaP Xenografts: 6-8-Week-old nude mice (Harlan Sprague-Dawley) weighing 25-31 g were subcutaneously inoculated with LNCaP cells ([…] in BD Matrigel, BD Biosciences) at the posterior dorsal site. Tumor volume, body weight, and serum PSA levels were measured weekly. Mice were castrated when serum PSA levels reached 50 ng/ml. […] Calipers were used to measure the three perpendicular axes of each tumor to calculate the tumor volume.
# [12] = Conversion of prodrug to parent drug in tissue homogenate; assay type: in vitro ADME; conditions: mouse small intestine tissue homogenate
# [13] = human, microsomes, read-out: Half-life
# androgen binding site (ABS) of recombinant wild type LBD, sequence (P15207 651-882 limits assumed): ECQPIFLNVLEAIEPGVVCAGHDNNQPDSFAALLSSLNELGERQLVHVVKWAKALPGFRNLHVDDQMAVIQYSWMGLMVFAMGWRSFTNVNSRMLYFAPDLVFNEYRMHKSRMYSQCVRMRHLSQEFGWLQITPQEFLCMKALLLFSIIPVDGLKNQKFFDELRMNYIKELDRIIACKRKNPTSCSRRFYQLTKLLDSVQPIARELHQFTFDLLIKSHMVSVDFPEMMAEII
compound,measurement,setting,value
"2-(2-(5,6,7-Trifluoro-1H-indol-3-yl)quinolin-5-yl)thiazole [Compound 13801]",IC50,[1],> 10000 nM
"Cc1cccc2c(-c3ccc4ccccc4n3)c[nH]c12 [Compound 13566, 2-(7-Methyl-1H-indol-3-yl)quinoline]",blood concentration level,[2]; compared with 13789,much lower
same,penetration of the blood-brain-barrier,"[2]; mice, 3 hour time point",significantly penetrated the blood-brain-barrier
same,solubility in water,[3],not soluble in water at the required concentration
Cc1ccc2c(-c3ccc4ccccc4n3)c[nH]c2c1F [Compound 13619],AR inhibition activity,[4],weaker or even inactive
Cc1cccc2c(-c3ccc4c(O)cccc4n3)c[nH]c12 [Compound 13620],IC50-eGFP,[4],inactive
Cc1cccc2c(-c3ccc4c(F)cccc4n3)c[nH]c12 [Compound 13623],IC50-eGFP,[4],inactive
Fc1cc(Cl)cc2c(-c3ccc4ccccc4n3)c[nH]c12 [Compound 13641],AR inhibition activity,[4],weaker or even inactive
CNC(=O)c1cccc2nc(-c3c[nH]c4c(F)c(F)c(F)cc34)ccc12 [Compound 13719],IC50,"[1]; Homo sapiens, LNCaP",130 nM
"CC(C)NC(=O)c1cccc2nc(-c3c[nH]c4c(F)c(F)c(F)cc34)ccc12 [Compound 13789, N-isopropyl-2-(5,6,7-trifluoro-1H-indol-3-yl)quinoline-5-carboxamide]",IC50,"[1]; Homo sapiens, LNCaP",80 nM
same,effect on growth of LNCaP cells,LNCaP cells,concentration-dependent inhibition of growth; also recorded: significant decrease in the growth
same,effect on growth of PC3 cells,PC3 (AR negative) cells,not with AR-independent PC3 cells; also recorded: did not exhibit any inhibitory effect
same,microsome stability,[5],good microsome stability
same,half-life,[5],206 (206.26)
same,metabolic stability judged from polar peaks in chromatograms,[2]; serum and brain samples,metabolically more stable
same,GSEA normalized enrichment score (canonical AR genes),[6],−3.33
same,differentially expressed genes,[6],1514 genes
same,downregulated genes,[6],967
same,upregulated genes,[6],547
same,p53 pathway,[6],upregulation of the p53 pathway
same,chromatin binding of AR,[7],significantly reduced the chromatin binding of AR
same,nuclear accumulation of AR,[8],only marginally affected nuclear accumulation
same,% Disp. @ 1 uM (DHT displacement from the ABS site),[9]; 1 uM,4 ± 3.8%
same,ABS inhibition,[9]; 10 μM,no significant ABS inhibition
same,DHT displacement from ABS,[9]; various concentrations,Very little displacement
same,AR protein-protein interactions disrupted (of 112 enriched),[10],34
CN(C)C(=O)c1cccc2nc(-c3c[nH]c4c(F)c(F)c(F)cc34)ccc12 [Compound 13791],IC50,"[1]; Homo sapiens, LNCaP",> 10000 nM
same,IC50,[4],> 10000 nM
"Fc1cc2c(-c3ccc4c(-c5cncs5)cccc4n3)c[nH]c2c(F)c1F [Compound 13793, 5-(2-(5,6,7-Trifluoro-1H-indol-3-yl)quinolin-5-yl)thiazole]",IC50,"[1]; Homo sapiens, LNCaP",330 nM
same,half-life,[5]; [13],1.73 h
Fc1cc2c(-c3ccc4c(-c5cnco5)cccc4n3)c[nH]c2c(F)c1F [Compound 13794],IC50,"[1]; Homo sapiens, LNCaP",> 10000 nM
same,IC50,[4],> 10000 nM
"O=C(NC1CC1)c1cccc2nc(-c3c[nH]c4c(F)c(F)c(F)cc34)ccc12 [Compound 13795, N-Cyclopropyl-2-(5,6,7-trifluoro-1H-indol-3-yl)quinoline-5-carboxamide]",IC50,"[1]; Homo sapiens, LNCaP",230 nM
same,microsome stability,[5],good microsome stability
same,half-life,[5]; [13],4.35 h
CNC(=O)c1c(F)ccc2nc(-c3c[nH]c4c(F)c(F)c(F)cc34)ccc12 [Compound 13796],IC50,"[1]; Homo sapiens, LNCaP",950 nM
same,IC50,[4],5480 nM
O=C(NC1CC1)c1c(F)ccc2nc(-c3c[nH]c4c(F)c(F)c(F)cc34)ccc12 [Compound 13797],IC50,"[1]; Homo sapiens, LNCaP",1500 nM
same,IC50,[4],1980 nM
Fc1cc2c(-c3ccc4c(-c5cncs5)c(F)ccc4n3)c[nH]c2c(F)c1F [Compound 13799],IC50,"[1]; Homo sapiens, LNCaP",750 nM
same,IC50,[4],560 nM
CC(C)NC(=O)c1c(F)ccc2nc(-c3c[nH]c4c(F)c(F)c(F)cc34)ccc12 [Compound 13802],IC50,"[1]; Homo sapiens, LNCaP",> 10000 nM
same,IC50,[4],> 10000 nM
CN(C)C(=O)c1c(F)ccc2nc(-c3c[nH]c4c(F)c(F)c(F)cc34)ccc12 [Compound 13803],IC50,[4],> 10000 nM
OC(c1cccc2nc(-c3c[nH]c4c(F)c(F)c(F)cc34)ccc12)C(F)(F)F (stereo not drawn) [Compound 13804],IC50,[4],32000 nM
"O=C(NCC1CC1)c1cccc2nc(-c3c[nH]c4c(F)c(F)c(F)cc34)ccc12 [Compound 13807, N-(Cyclopropylmethyl)-2-(5,6,7-trifluoro-1H-indol-3-yl)quinoline-5-carboxamide]",IC50,"[1]; Homo sapiens, LNCaP",160 nM
same,microsome stability,[5],good microsome stability
"O=C(NCC(F)F)c1cccc2nc(-c3c[nH]c4c(F)c(F)c(F)cc34)ccc12 [Compound 13808, N-(2,2-Difluoroethyl)-2-(5,6,7-trifluoro-1H-indol-3-yl)quinoline-5-carboxamide]",microsome stability,[5],good microsome stability
CC(C)NC(=O)c1cccc2nc(-c3cn(COP(=O)(O)O)c4c(F)c(F)c(F)cc34)ccc12 [Compound 13822],tumour volume / growth in xenograft,[11]; up to 5 weeks,reduces tumor volume; also recorded: inhibited tumour growth to levels comparable with enzalutamide treatment
same,serum PSA production in xenograft,[11],inhibits PSA production; also recorded: reducing serum PSA levels
same,half-life,[12],~2 h
same,solubility in water,[3],water soluble
"CNC(=O)c1ccc(N2C(=S)N(c3ccc(C#N)c(C(F)(F)F)c3)C(=O)C2(C)C)cc1F [Enzalutamide, reference compound]",GSEA normalized enrichment score (canonical AR genes),[6],−2.31
same,differentially expressed genes,[6],586 genes
same,downregulated genes,[6],372
same,upregulated genes,[6],214
same,p53 pathway,[6],not observed
